# Patent US20240299334A1, “PHARMACEUTICAL COMPOSITION OF NAPHTHALENE DERIVATIVES AS MULTI-TARGETED THERAPEUTIC AGENTS FOR THE TREATMENT OF ALZHEIMER'S DISEASE” (CENTRO DE NEUROCIENCIAS DE CUBA, CNEURO, priority 2020, published 2024)
# Columns and labels:
# [1] = test system: memory loss induced by an acute administration of scopolamine (ESC); assay: Morris water maze, two-day protocol, acute ESC model; assay type: in vivo, mice; details: long-term spatial memory
# Procedure: Young male OF-1 mice (20-25 g), supplied by the National Center for the Laboratory Animals Production (CENPALAB, Cuba), were used. Before the experiment, the animals were adapted for seven days to laboratory conditions (controlled temperature 25±2° C., relative humidity 60±10% and light/dark cycles of 12 h). During this period, and during the experiment, the animals received ad libitum water and a standard diet for rodents supplied by CENPALAB. All procedures were carried out in accordance with the European Commission guidelines for the use and care of laboratory animals and approved by the Committee for the Care of Research Animals. The minimum number of animals and duration of observations required to obtain consistent data was used.
# At the end of the adaptation period, the animals were randomly distributed according to their body weights in 5 experimental groups of 12 animals per group. […]
# The experience was carried out for two days; a first day of training and a second day of testing. […] 24 hours after the last visible platform test (D2), the animals were evaluated in a series of three tests with the hidden platform (T1-T3). […]
# All data are expressed as the mean±standard error of the mean (SEM). The Morris water maze data was analyzed in two ways. Escape latencies in the visible platform training phase were analyzed using a two-factor ANOVA (treatment×trial). […]
# [2] = test system: memory loss induced with the chronic use of scopolamine; assay: Morris water maze, chronic ESC model; assay type: in vivo, mice
# Procedure: Male C57BL/6 mice (20-25 g), supplied by the National Center for the Laboratory Animals Production (CENPALAB, Cuba) were used. During the experiment, the animals received adlibitum water and standard diet supplied by CENPALAB. All procedures were carried out in accordance with the European Commission guidelines for the use and care of laboratory animals and approved by the Committee for the Research Animals Care. The minimum number of animals and duration of observations required to obtain consistent data was used.
# At the end of the adaptation period, the animals were randomly distributed according to their body weights in five experimental groups of 12 animals each. For the induction of cognitive deficit, ESC (Sigma Aldrich) was used, which was dissolved in physiological saline and administered daily intraperitoneally (ip) at a dose of 1.5 mg/kg for 2 weeks, in the morning (Park J H, et al. In J Mol Neurosci. 2016; 59 (4): 579-589). Compound 3 was prepared as a suspension, in 0.5% soluble starch (Merck Millipore), and administered orally by intragastric cannula at a daily dose of 0.1, 1, 10 mg/kg of body weight […]. The experimental groups were: […]
# Morris Water Maze (MWM): Analogous to Example 2, the two-day MWM test was used to determine long-term spatial memory. […] In this way, long-term spatial memory was determined by the quotient of the escape latency values D2T1/D1V6. […]
structure (smiles),measurement,setting,value
"CSC(=S)NCCNC(=O)CCC(=O)Nc1cccc2ccccc12 [compound 3, methyl(2-{[4-(1-naphthylamino)-4-oxobutanoyl]amino}ethyl)dithiocarbamate]","difference and ratio of escape latency, last visible-platform test vs first hidden-platform test",[1],differs significantly from the group with ESC
same,maximum effect dose,"[2]; MWM, chronic ESC model",1 mg/kg
same,ratio of first escape latency with hidden platform (T7) and last test with visible platform (T6),"[2]; compound 3 1 and 10 mg/kg oral daily, ESC 1.5 mg/kg daily, 2 weeks",significantly decreased compared to the ESC group
